Here are results for 18 molecules from US8389508B2 (Glaxo Group Limited, priority 2010, dated 2013).

Counter-ions that a name gives are not always drawn. A value given as a limit tells only on which side of the number the result lay.

For assay [1], the target named is T1, human Endothelial Differentiation Gene 1 (EDG1), S1P1 receptor (Homo sapiens, UniProt P21453).
T1 construct: TEV protease site; Gal4-VP16 transcription factor; expressed in transfected cells; host or cells: EDG1-bla/U2OS (Tango GPCR-bla U2OS parental cell line)
T1 sequence (P21453 whole entry, the tested form may be a part): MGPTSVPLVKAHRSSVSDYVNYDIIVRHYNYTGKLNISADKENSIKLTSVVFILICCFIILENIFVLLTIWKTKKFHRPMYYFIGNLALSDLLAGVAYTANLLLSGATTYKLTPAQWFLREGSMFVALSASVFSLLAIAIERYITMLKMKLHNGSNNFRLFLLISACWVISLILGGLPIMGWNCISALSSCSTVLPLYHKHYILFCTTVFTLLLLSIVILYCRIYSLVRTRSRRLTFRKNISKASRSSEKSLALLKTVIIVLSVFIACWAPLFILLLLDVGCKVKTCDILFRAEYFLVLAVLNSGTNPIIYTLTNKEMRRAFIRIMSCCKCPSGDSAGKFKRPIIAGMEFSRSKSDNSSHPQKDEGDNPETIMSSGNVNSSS
Description: S1P1 Assay (Tango EDG1-bla/U2OS beta-lactamase reporter, agonist dose response). It counts as cell-based. The note with it: EDG1-bla/U2OS cells, blue/green emission ratio, 10 point dose response, free base or salt form; read-out: pEC50 (S1P1 assay) (converted). On the procedure: Recombinant EDG1-bla/U2OS cells (contain the human Endothelial Differentiation Gene 1 (EDG1) linked to a TEV protease site and a Gal4-VP16 transcription factor stably integrated into the Tango GPCR-bla U2OS parental cell line) were harvested from growth medium and passaged into assay medium (Invitrogen Freestyle Expression Medium). The cells were starved for 24 hours at 37° C., 5% CO2, harvested and resuspended in assay medium at a density of ˜200,000 cells/ml. All test compounds were dissolved in DMSO at a concentration of 10 mM and were prepared in 100% DMSO to provide 10 point dose response curves. Test compounds in the free base or in a salt form were prepared by Velocity11 Bravo automation (Agilent) were added to wells in columns 2-11 and 13-22; DMSO was added to wells in columns 12 and 23 as unstimulated controls and assay medium was added to wells in columns 1 and 24 as cell-free controls. An S1P1 agonist was added to wells in row 2, columns 2-11 as stimulated controls and test compounds were added to wells in row 2, columns 13-22 and rows 3-15, columns 2-11/13-22 (row 1 and 16 were empty and not used). Compounds in solution were added to the assay plate (Greiner 781090) using an Echo (Labcyte) dose-response program (50 nl/well). The unstimulated and cell-free controls were loaded with 50 nl/well pure DMSO to ensure that the DMSO concentration was constant across the plate for all assays. 50 μl of the cell suspension was added to each well in columns 2-23 of the plate (˜10,000 cells per well). 50 μl of assay medium was added to each well in the cell-free controls (columns 1 and 24). The cells were incubated overnight at 37° C./5% CO2.
(§1) 10 μl of 6× substrate mixture (LiveBLAzer™-FRET B/G substrate (CCF4-AM) Cat # K1096 from Invitrogen, Inc.) was added to each well using Bravo automation and the plates incubated at room temperature for 2 h in the dark. The plate was finally read on EnVision using one excitation channel (409 nm) and two emission channels (460 nm and 530 nm).
(§2) The blue/green emission ratio (460 nm/530 nm) was calculated for each well, by dividing the background-subtracted Blue emission values by the background-subtracted Green emission values. The dose response curve is based on sigmoidal dose-response model. All ratio data was normalized based upon the maximum emission ratio of positive control and minimum emission ratio of negative control (DMSO) on each plate. The intrinsic activity (IA) of each compound is defined as relative response normalised to a reference compound, whose maximum response is defined as 100% after curve fitting.

The target of assay [2] is T2, human Endothelial Differentiation G-protein Coupled Receptor 3 (EDG3), S1P3 receptor (Homo sapiens, UniProt Q99500).
T2 construct: expressed in transfected cells; host or cells: GeneBLAzer EDG3-Ga15-NFAT-bla HEK 293T
T2 sequence (Q99500 whole entry): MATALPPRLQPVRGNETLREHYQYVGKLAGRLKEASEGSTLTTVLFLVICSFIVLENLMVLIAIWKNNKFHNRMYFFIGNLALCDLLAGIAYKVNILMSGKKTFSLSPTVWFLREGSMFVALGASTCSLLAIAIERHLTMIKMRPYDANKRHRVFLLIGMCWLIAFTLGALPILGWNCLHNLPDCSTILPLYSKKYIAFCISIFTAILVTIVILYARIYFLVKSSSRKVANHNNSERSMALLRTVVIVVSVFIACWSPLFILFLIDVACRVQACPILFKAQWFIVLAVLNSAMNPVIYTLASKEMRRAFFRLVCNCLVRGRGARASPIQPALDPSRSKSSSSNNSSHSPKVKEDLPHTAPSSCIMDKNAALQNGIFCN
In words: S1P3 Assay (GeneBLAzer EDG3-Ga15-NFAT-bla HEK 293T beta-lactamase reporter, agonist dose response). It counts as cell-based. The following applies: EDG3-Ga15-NFAT-bla HEK 293T cells, blue/green emission ratio, 10 point dose response, free base or salt form; read-out: pEC50 (S1P3 assay) (converted). On the procedure: GeneBLAzer EDG3-Ga15-NFAT-bla HEK 293T cells (contain the human Endothelial Differentiation G-protein Coupled Receptor 3 (EDG3) and a beta-lactamase reporter gene under control of a NFAT response element and a promiscuous G Protein, Ga15, stably integrated into the GeneBLAzer Ga15-NFAT-bla HEK 293T cell line) were harvested from growth medium and suspended in assay medium (90% DMEM, 10% Charcoal-stripped FBS, 0.1 mM NEAA, 25 mM HEPES (pH 7.3), 100 U/ml penicillin, 100 μg/ml streptomycin) at a density of […]. All test compounds were dissolved in DMSO at a concentration of 10 mM and were prepared in 100% DMSO to provide 10 point dose response curves. Test compounds in the free base or in a salt form were prepared by Velocity 11 Bravo automation (Agilent) were added to wells in columns 2-11 and 13-22; DMSO was added to wells in columns 12 and 23 as unstimulated controls and assay medium was added to wells in columns 1 and 24 as cell-free controls. An S1P3 agonist was added to wells in row 2, columns 2-11 as stimulated controls and test compounds were added to wells in row 2, columns 13-22 and rows 3-15, columns 2-11/13-22 (row 1 and 16 were empty and not used). Compounds in solution were added to the assay plate (Greiner 781090) using an Echo (Labcyte) dose-response program (50 nl/well). The unstimulated and cell-free controls were loaded with 50 nl/well pure DMSO to ensure that the DMSO concentration was constant across the plate for all assays.
50 μl of the cell suspension was added to each well in columns 2-23 of the plate (˜10,000 cells per well). 50 μl of assay medium was added to each well in the cell-free controls (columns 1 and 24). The cells were incubated overnight at 37° C./5% CO2.
as §1, §2

With `CCc1c(CN2CCC(C(=O)O)CC2)cccc1-c1nnc(-c2ccc(OC(C)C)c(C(F)(F)F)c2)s1` [Example 1, 1-[(2-ethyl-3-{5-[4-[(1-methylethyl)oxy]-3-(trifluoromethyl)phenyl]-1,3,4-thiadiazol-2-yl}phenyl)methyl]-4-piperidinecarboxylic acid], the figures for the EC50 in assay [1] and in assay [2] were less than 1 nM and greater than 3.16 µM, respectively.

In the case of `CCc1c(CCN2CC(C(=O)O)C2)cccc1-c1nnc(-c2ccc(OC(C)C)c(C(F)(F)F)c2)s1` [Example 7, 1-[2-(2-ethyl-3-{5-[4-[(1-methylethyl)oxy]-3-(trifluoromethyl)phenyl]-1,3,4-thiadiazol-2-yl}phenyl)ethyl]-3-azetidinecarboxylic acid trifluoroacetate], the EC50 in assay [1] was less than 1 nM; in assay [2], greater than 3.16 µM.

Regarding `CCc1c(CN2CCC(C(=O)O)CC2)cccc1-c1nnc(-c2ccc(CC(C)C)c(C#N)c2)s1` [Example 8, 1-[(3-{5-[3-cyano-4-(2-methylpropyl)phenyl]-1,3,4-thiadiazol-2-yl}-2-ethylphenyl)methyl]-4-piperidinecarboxylic acid trifluoroacetate], the EC50 was less than 1 nM in assay [1] and greater than 3.16 µM in assay [2].

On to `CCc1c(CN2CC(C(=O)O)C2)cccc1-c1nnc(-c2ccc(CC(C)C)c(C#N)c2)s1` [Example 9, 1-[(3-{5-[3-cyano-4-(2-methylpropyl)phenyl]-1,3,4-thiadiazol-2-yl}-2-ethylphenyl)methyl]-3-azetidinecarboxylic acid trifluoroacetate], for which the EC50 in assay [1] was less than 1 nM; in assay [2] it was greater than 10 µM.

For `CCc1c(CCN2CC(C(=O)O)C2)cccc1-c1nnc(-c2ccc(CC(C)C)c(C#N)c2)s1` [Example 10, 1-[2-(3-{5-[3-cyano-4-(2-methylpropyl)phenyl]-1,3,4-thiadiazol-2-yl}-2-ethylphenyl)ethyl]-3-azetidinecarboxylic acid], the EC50 was less than 1 nM in assay [1] and greater than 3.16 µM in assay [2].

Turning to `CCc1c(CCN2CCC(C(=O)O)CC2)cccc1-c1nnc(-c2ccc(CC(C)C)c(C#N)c2)s1` [Example 11, 1-[2-(3-{5-[3-cyano-4-(2-methylpropyl)phenyl]-1,3,4-thiadiazol-2-yl}-2-ethylphenyl)ethyl]-4-piperidinecarboxylic acid], the EC50 is less than 1 nM in assay [1] and greater than 3.16 µM in assay [2].

On to `CCc1c(CCN2CCC(C(=O)O)C2)cccc1-c1nnc(-c2ccc(OC(C)C)c(Cl)c2)s1` (centres unmarked) [Example 12, 1-{2-[3-(5-{3-chloro-4-[(1-methylethyl)oxy]phenyl}-1,3,4-thiadiazol-2-yl)-2-ethylphenyl]ethyl}-3-pyrrolidinecarboxylic acid trifluoroacetate], for which the EC50 was less than 1 nM in assay [1] and greater than 3.16 µM in assay [2].

As to `COc1c(CCN2CCC(C(=O)O)CC2)cc(F)cc1-c1nnc(-c2ccc(OC(C)C)c(C(F)(F)F)c2)s1` [Example 13, 1-{2-[5-fluoro-3-{5-[4-[(1-methylethyl)oxy]-3-(trifluoromethyl)phenyl]-1,3,4-thiadiazol-2-yl}-2-(methyloxy)phenyl]ethyl}-4-piperidinecarboxylic acid], the values for the EC50 in assay [1] and in assay [2] were less than 100 nM and greater than 10 µM, respectively.

With `COc1c(CCN2CC(C(=O)O)C2)cc(F)cc1-c1nnc(-c2ccc(OC(C)C)c(C(F)(F)F)c2)s1` [Example 14, 1-{2-[5-fluoro-3-{5-[4-[(1-methylethyl)oxy]-3-(trifluoromethyl)phenyl]-1,3,4-thiadiazol-2-yl}-2-(methyloxy)phenyl]ethyl}-3-azetidinecarboxylic acid], the EC50 in assay [1] was no more than 10 nM; in assay [2], greater than 10 µM.

On to `COc1c(CCN2CC(C(=O)O)C2)cc(F)cc1-c1nnc(-c2ccc(CC(C)C)c(C#N)c2)s1` [Example 15, 1-{2-[3-{5-[3-cyano-4-(2-methylpropyl)phenyl]-1,3,4-thiadiazol-2-yl}-5-fluoro-2-(methyloxy)phenyl]ethyl}-3-azetidinecarboxylic acid], for which the EC50 in assay [1] is no more than 10 nM; in assay [2], greater than 10 µM.

`CCc1c(CN2CC(C(=O)O)C2)cccc1-c1nsc(-c2ccc(OC(C)C)c(C#N)c2)n1` [Example 17, 1-{[3-(5-{3-cyano-4-[(1-methylethyl)oxy]phenyl}-1,2,4-thiadiazol-3-yl)-2-ethylphenyl]methyl}-3-azetidinecarboxylic acid trifluoroacetate]: the EC50 is no more than 10 nM in assay [1] and greater than 3.16 µM in assay [2].

On to `CCc1c(CN2CCC(C(=O)O)CC2)cccc1-c1nsc(-c2ccc(OC(C)C)c(C(F)(F)F)c2)n1` [Example 18, 1-[(2-ethyl-3-{5-[4-[(1-methylethyl)oxy]-3-(trifluoromethyl)phenyl]-1,2,4-thiadiazol-3-yl}phenyl)methyl]-4-piperidinecarboxylic acid trifluoroacetate], for which the EC50 was less than 100 nM in assay [1] and greater than 3.16 µM in assay [2].

As for `CCc1c(CCN2CC(C(=O)O)C2)cccc1-c1nsc(-c2ccc(OC(C)C)c(C#N)c2)n1` [Example 26, 1-{2-[3-(5-{3-cyano-4-[(1-methylethyl)oxy]phenyl}-1,2,4-thiadiazol-3-yl)-2-ethylphenyl]ethyl}-3-azetidinecarboxylic acid trifluoroacetate], the results for the EC50 in assay [1] and in assay [2] were less than 1 nM and greater than 3.16 µM, respectively.

Regarding `CCc1c(CN2CC(C(=O)O)C2)cccc1-c1cnc(-c2ccc(OC(C)C)c(C(F)(F)F)c2)s1` [Example 31, 1-[(2-ethyl-3-{2-[4-[(1-methylethyl)oxy]-3-(trifluoromethyl)phenyl]-1,3-thiazol-5-yl}phenyl)methyl]-3-azetidinecarboxylic acid], the EC50 in assay [1] is less than 1 nM; in assay [2] it was greater than 3.16 µM.

For the molecule `CCc1c(CN2CCCC(C(=O)O)C2)cccc1-c1cnc(-c2ccc(OC(C)C)c(C#N)c2)s1` (centres unmarked) [Example 86], the EC50 in assay [2] is greater than 10 µM.

For `CCc1c(CCN2CCC[C@@H]2C(=O)O)cccc1-c1cnc(-c2ccc(OC(C)C)c(C#N)c2)s1` [Example 89], the EC50 in assay [2] was greater than 10 µM.

In the case of `CCc1c(-c2nnc(-c3ccc(OC(C)C)c(Cl)c3)s2)cccc1C1CCN(CCC(=O)O)CC1` [Example 95, 3-{4-[3-(5-{3-chloro-4-[(1-methylethyl)oxy]phenyl}-1,3,4-thiadiazol-2-yl)-2-ethylphenyl]-1-piperidinyl}propanoic acid trifluoroacetate], the EC50 in assay [2] is greater than 3.16 µM.

Consider `CCc1c(-c2nnc(-c3ccc(OC(C)C)c(Cl)c3)s2)cccc1C1CCN(CCCC(=O)O)CC1` [Example 97, 4-{4-[3-(5-{3-chloro-4-[(1-methylethyl)oxy]phenyl}-1,3,4-thiadiazol-2-yl)-2-ethylphenyl]-1-piperidinyl}butanoic acid trifluoroacetate], for which the EC50 in assay [2] was greater than 3.16 µM.
